Blank lines part the entries; values can stand above or below the molecule they belong to. Non-standard residues stand in square brackets, D forms with d. Residues, ends and D or L forms follow the SMILES beside them. *: point of attachment. Arg(NO2) = N=C(NCCC[C@H](N)C(=O)O)N[N+](=O)[O-]; Bz = O=C(c1ccccc1)*
What was measured:
[1] = species: Rattus norvegicus; assay: In vitro vasorelaxant activity in male wistar rat thoracic aorta by classical rat aorta relaxation assay; n.a.=not active up to a concentration of 3e-4 M; format: functional
[2] = species: Rattus norvegicus; assay: In vitro vasorelaxant activity in male wistar rat thoracic aorta by classical rat aorta relaxation assay; format: functional

Compound: CC(C)C[C@H](NC(=O)[C@H](CCC/N=C(\N)N[N+](=O)[O-])NC(=O)C1CCCCC1)C(N)=O
EC50 [1]: Not Active

Compound: COc1ccc(C(=O)N[C@@H](CCC/N=C(\N)N[N+](=O)[O-])C(=O)N[C@@H](CC(C)C)C(N)=O)cc1
EC50 [2]: 69 µM

Compound: CC(C)C[C@H](NC(=O)[C@H](CCC/N=C(\N)N[N+](=O)[O-])NC(=O)c1ccc(C(F)(F)F)cc1)C(N)=O
EC50 [1]: Not Active

Compound: CC(C)C[C@H](NC(=O)[C@H](CCC/N=C(\N)N[N+](=O)[O-])NC(=O)c1ccc(Cl)cc1)C(N)=O
EC50 [1]: Not Active

Compound: CC(C)C[C@H](NC(=O)[C@H](CCC/N=C(\N)N[N+](=O)[O-])NC(=O)c1ccc(OC(F)(F)F)cc1)C(N)=O
EC50 [2]: 20 µM

Compound: CC(C)C[C@H](NC(=O)[C@H](CCC/N=C(\N)N[N+](=O)[O-])NC(=O)c1ccc([N+](=O)[O-])cc1)C(N)=O
EC50 [1]: Not Active

Compound: CC(C)C[C@H](NC(=O)[C@H](CCC/N=C(\N)N[N+](=O)[O-])NS(=O)(=O)c1ccccc1)C(N)=O
EC50 [1]: Not Active

Compound: CSc1ccc(C(=O)N[C@@H](CCC/N=C(\N)N[N+](=O)[O-])C(=O)N[C@@H](CC(C)C)C(N)=O)cc1
EC50 [1]: Not Active

Compound: CC(C)C[C@H](NC(=O)[C@H](CCC/N=C(\N)N[N+](=O)[O-])NC(=O)c1ccc(C#N)cc1)C(N)=O
EC50 [1]: Not Active

Compound: CC(=O)N[C@@H](CCC/N=C(\N)N[N+](=O)[O-])C(=O)N[C@@H](CC(C)C)C(N)=O (Ac-[Arg(NO2)]-Leu-NH2)
EC50 [1]: Not Active

Compound: CC(C)C[C@H](NC(=O)[C@H](CCC/N=C(\N)N[N+](=O)[O-])NC(=O)c1ccccc1)C(N)=O (Bz-[Arg(NO2)]-Leu-NH2)
EC50 [2]: 400 µM

EC50 [2]: 4 µM
Compound: CC[C@H](C)[C@H](NC(=O)[C@H](CC(C)C)NC(=O)[C@@H](N)CO)C(=O)NCC(=O)N[C@@H](CCCNC(=N)N)C(=O)N[C@@H](CC(C)C)C(N)=O (H-SLIGRL-NH2)

From ChEMBL document CHEMBL1135088, “Minimal structural requirements for agonist activity of PAR-2 activating peptides” (Bioorg Med Chem Lett, 2002)
